{
  "source": "patent US20080027125A1",
  "about": "(priority 2006, published 2008)",
  "key": {"[1]": {"assay": "Heating of Fluvastatin Sodium Form CVI in oven, analysed by XRD and KF", "assay_type": "physicochemical", "method": "In the following examples, the forms of Fluvastatin Sodium were identified using a Scintag X-ray powder diffractometer model X'TRA with a solid state detector. Copper radiation of 1.5418 Å was used. The sample holder was a round standard aluminum sample holder with rough zero background. The scanning parameters were range: 2-40 degrees two-theta; scan mode: continuous scan; step size: 0.05 deg.; and a rate of 5 deg/min. The water content of the samples was determined by the method known as Karl Fisher (KF)."}, "[2]": {"assay": "Storing at room temperature under 0-60% RH for 10 days, analysed by XRD and KF", "assay_type": "physicochemical", "details": "for form found by XRD at the end of the storage time / water content after storage: room temperature", "procedure": "Copper radiation of 1.5418 Å was used. The sample holder was a round standard aluminum sample holder with rough zero background. The scanning parameters were range: 2-40 degrees two-theta; scan mode: continuous scan; step size: 0.05 deg.; and a rate of 5 deg/min. The water content of the samples was determined by the method known as Karl Fisher (KF). […] Before and after the storage time the sample was analyzed by XRD. […] Before and after the storage time the sample was analyzed by XRD and KF."}, "[3]": {"details": "Form A compared with the amorphous form; Form B as stated; cited from earlier work"}, "[4]": {"assay": "Storing at room temperature under 100% RH for 10 days, analysed by XRD", "assay_type": "physicochemical", "method": "In the following examples, the forms of Fluvastatin Sodium were identified using a Scintag X-ray powder diffractometer model X'TRA with a solid state detector. Copper radiation of 1.5418 Å was used. The sample holder was a round standard aluminum sample holder with rough zero background. The scanning parameters were range: 2-40 degrees two-theta; scan mode: continuous scan; step size: 0.05 deg.; and a rate of 5 deg/min. The water content of the samples was determined by the method known as Karl Fisher (KF). […] The samples stored under 100% RH had about 25% water content."}, "[5]": {"details": "0% RH, listed as fluvastatin Sodium Form CVI"}},
  "data": [
    {"compound": "CC(C)n1c(/C=C/C(O)C[C@@H](O)CC(=O)O)c(-c2ccc(F)cc2)c2ccccc21", "note": "(stereo partly drawn) [Form CVI, fluvastatin sodium]", "values": [
      {"measurement": "water content (KF) after heating", "setting": "[1]; 80 C, 1 hour", "value": "about 2%"},
      {"measurement": "water content (KF) after heating", "setting": "[1]; 80 C, 1 hour, listed as Fluvastatin Na Form CVI", "value": 2, "unit": "%"},
      {"measurement": "conversion into fluvastatin sodium Form LXVI", "setting": "[1]; heating to about 80° C. for about 1 hour", "value": "≤ 10", "unit": "%"},
      {"measurement": "form found by XRD after heating", "setting": "[1]; oven, 80 C, 1 hour", "value": "Fluvastatin Sodium Form CVI"},
      {"measurement": "form found by XRD at the end of the storage time", "setting": "[2]; [5]", "value": "Fluvastatin Sodium Form CVI"},
      {"measurement": "water content after storage", "setting": "[2]; [5]", "value": 3, "unit": "%"},
      {"measurement": "form found by XRD at the end of the storage time", "setting": "[2]; 60% RH, listed as fluvastatin Sodium Form CVI", "value": "Fluvastatin Sodium Form CVI"},
      {"measurement": "conversion into fluvastatin sodium Form LXVI", "setting": "[2]; relative humidity about 0% to about 60%", "value": "≤ 10", "unit": "%"}
    ]},
    {"compound": "CC(C)n1c(/C=C/C(O)C[C@@H](O)CC(=O)O)c(-c2ccc(F)cc2)c2ccccc21", "note": "(stereo partly drawn) [form B, fluvastatin sodium]", "values": [
      {"measurement": "hygroscopicity", "setting": "[3]", "value": "low hygroscopicity"}
    ]},
    {"compound": "CC(C)n1c(/C=C/C(O)C[C@@H](O)CC(=O)O)c(-c2ccc(F)cc2)c2ccccc21", "note": "(stereo partly drawn) [Form A, fluvastatin sodium]", "values": [
      {"measurement": "hygroscopicity", "setting": "[3]", "value": "less hygroscopic"}
    ]},
    {"compound": "CC(C)n1c(/C=C/C(O)C[C@@H](O)CC(=O)O)c(-c2ccc(F)cc2)c2ccccc21", "note": "(stereo partly drawn) [amorphous fluvastatin sodium, fluvastatin sodium]", "values": [
      {"measurement": "water content after storage", "setting": "[4]", "value": "about 25%"},
      {"measurement": "form found by XRD after storage", "setting": "[4]; room temperature", "value": "Fluvastatin Na Form LXVI"},
      {"measurement": "form found by XRD at the end of the storage time", "setting": "[2]; 0% RH", "value": "amorphous Fluvastatin Sodium"},
      {"measurement": "water content after storage", "setting": "[2]; 0% RH", "value": 4, "unit": "%"},
      {"measurement": "form found by XRD at the end of the storage time", "setting": "[2]; 60% RH", "value": "amorphous Fluvastatin Sodium"}
    ]}
  ]
}
